Our source for the IC50 and IC (total growth inhibition) values is patent publication US8975417B2, “Pyrazolopyrrolidine derivatives and their use in the treatment of disease” (Novartis AG, priority 2013, dated 2015).

Structures are written as SMILES.

For one assay, the target named is His-Brd4(44-477) (Homo sapiens (Human), UniProt O60885). Description: TR-FRET in-vitro binding assay for BRD4. The conditions noted are these: biochemical. The procedure, abridged:
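Assay buffer HEPES pH 7.5/NaCl/Tween20/BSA; protein solution 45 nM, peptide solution 60 nM acetyl-H4 (AcK5,8,12,16). Incubated 30 °C for 35 min; Eu-anti-His6 and SA-APC detection, TR-FRET read.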

Assay [1] addresses His-CREBBP (1081-1197) bromodomain (Homo sapiens (Human), UniProt Q92793). Nature of the assay: AlphaScreen in-vitro binding assay for CREBBP. The following applies: biochemical. Put shortly:
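Ni-chelate acceptor and streptavidin donor beads (45 µg/mL each, in 50 mM HEPES pH 7.5, 150 mM NaCl, 0.02% BSA) were then added for 60 min at room temperature. IC50 came from 8-point non-linear regression.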

The test system of a further assay is THP-1 cells. Description: Cell growth inhibition assay (CellTiter-Glo), THP-1. Format: cell-based. The conditions noted are these: Homo sapiens, read-out: THP-1 TGI. The procedure, abridged:
(§1)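 Luminescent ATP quantification served as the viability read-out following incubation at 37° C. under 5% CO2. A day-0 reference plate allowed scaling from −100% (medium) to 100% (0.1% DMSO vehicle), with IC50 and TGI fitted by a four-parameter model.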

In another assay the test system is K-562 cells. Description: Cell growth inhibition assay (CellTiter-Glo), K-562. The format is cell-based, human. The conditions noted are these: Homo sapiens, K562, read-out: K-562 TGI. The procedure, abridged:
as §1

Sequence of His-CREBBP (1081-1197) bromodomain (Q92793 1081-1197): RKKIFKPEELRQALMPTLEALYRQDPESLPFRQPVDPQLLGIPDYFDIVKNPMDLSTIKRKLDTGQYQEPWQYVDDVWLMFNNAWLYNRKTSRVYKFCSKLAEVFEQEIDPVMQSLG

In the case of `CCc1nn(C2CC2)c2c1C(c1ccc(Cl)cc1)N(c1cc(OC)c3nnc(C)n3c1)C2=O` (stereo not drawn) [Example 84, 4-(4-chlorophenyl)-1-cyclopropyl-3-ethyl-5-(8-methoxy-3-methyl-[1,2,4]triazolo[4,3-a]pyridin-6-yl)-4,5-dihydropyrrolo[3,4-c]pyrazol-6(1H)-one], the IC50 was 28 nM at His-Brd4(44-477) and more than 37000 nM in assay [1]. The IC (total growth inhibition) in the assay on THP-1 cells was 0.163 µM; with K-562 cells, more than 10 µM.
For `CCc1nn(CCOC)c2c1C(c1ccc(Cl)cc1)N(c1cc(C)c3nnc(C)n3c1)C2=O` (stereo not drawn) [Example 87, 4-(4-chlorophenyl)-5-(3,8-dimethyl-[1,2,4]triazolo[4,3-a]pyridin-6-yl)-3-ethyl-1-(2-methoxyethyl)-4,5-dihydropyrrolo[3,4-c]pyrazol-6(1H)-one] the same measures were 50 nM, 9800 nM, 0.0598 µM and more than 10 µM.
Turning to `CCc1nn(-c2ccnn2C)c2c1C(c1ccc(Cl)cc1)N(c1cc(C)c(=O)n(C)c1)C2=O` (stereo not drawn) [Example 89, 4-(4-chlorophenyl)-5-(1,5-dimethyl-6-oxo-1,6-dihydropyridin-3-yl)-3-ethyl-1-(1-methyl-1H-pyrazol-5-yl)-4,5-dihydropyrrolo[3,4-c]pyrazol-6(1H)-one], the IC50 at His-Brd4(44-477) worked out at 47 nM; in assay [1], 2500 nM. The IC (total growth inhibition) in the assay on THP-1 cells was 0.119 µM; in the assay on K-562 cells, more than 10 µM.
For `Cc1nn(-c2ccnn2C)c2c1C(c1ccc(Cl)cc1)N(c1cc(C)c3nnc(C)n3c1)C2=O` (stereo not drawn) [Example 90, 4-(4-chlorophenyl)-5-(3,8-dimethyl-[1,2,4]triazolo[4,3-a]pyridin-6-yl)-3-methyl-1-(1-methyl-1H-pyrazol-5-yl)-4,5-dihydropyrrolo[3,4-c]pyrazol-6(1H)-one] the same measures were 15 nM, more than 37000 nM, 0.115 µM and more than 10 µM.
`Cc1cc(N2C(=O)c3nn(C4CC4)c(C)c3C2c2ccc(Cl)cc2)cn2c(C)nnc12` (stereo not drawn) [Example 93, 4-(4-chlorophenyl)-2-cyclopropyl-5-(3,8-dimethyl-[1,2,4]triazolo[4,3-a]pyridin-6-yl)-3-methyl-4,5-dihydropyrrolo[3,4-c]pyrazol-6(2H)-one]: the values for the IC50 (at His-Brd4(44-477); in assay [1]) were 27 nM and 3100 nM, respectively. The IC (total growth inhibition) in the assay on THP-1 cells was 0.0518 µM; with K-562 cells, more than 10 µM.
For `Cc1nn(C2CCC2)c2c1C(c1ccc(Cl)cc1)N(c1cc(C)c(=O)n(C)c1)C2=O` (stereo not drawn) [Example 94, 4-(4-chlorophenyl)-1-cyclobutyl-5-(1,5-dimethyl-6-oxo-1,6-dihydropyridin-3-yl)-3-methyl-4,5-dihydropyrrolo[3,4-c]pyrazol-6(1H)-one] the same measures were 24 nM, 650 nM, 0.0765 µM and more than 10 µM.
For `Cc1nn(C2CC2)c2c1C(c1ccc(OC(F)(F)F)cc1)N(c1cc(C)c(=O)n(C)c1)C2=O` (stereo not drawn) [Example 95, 1-cyclopropyl-5-(1,5-dimethyl-6-oxo-1,6-dihydropyridin-3-yl)-3-methyl-4-(4-(trifluoromethoxy)phenyl)-4,5-dihydropyrrolo[3,4-c]pyrazol-6(1H)-one] the same measures were 64 nM, 7700 nM, 0.411 µM and more than 10 µM.
For `Cc1nn(C2CC2)c2c1C(c1cccc(C(F)(F)F)c1)N(c1cc(C)c(=O)n(C)c1)C2=O` (stereo not drawn) [Example 96, 1-cyclopropyl-5-(1,5-dimethyl-6-oxo-1,6-dihydropyridin-3-yl)-3-methyl-4-(3-(trifluoromethyl)phenyl)-4,5-dihydropyrrolo[3,4-c]pyrazol-6(1H)-one] the same measures were 780 nM, 18000 nM, 2.55 µM and more than 10 µM.
With `Cc1nn(C2CC2)c2c1C(c1ccc(C(F)(F)F)cc1)N(c1cc(C)c(=O)n(C)c1)C2=O` (stereo not drawn) [Example 97, 1-cyclopropyl-5-(1,5-dimethyl-6-oxo-1,6-dihydropyridin-3-yl)-3-methyl-4-(4-(trifluoromethyl)phenyl)-4,5-dihydropyrrolo[3,4-c]pyrazol-6(1H)-one], the 50% inhibitory concentration (IC50) stood at 89 nM on His-Brd4(44-477) and 3600 nM in assay [1]. Further, the results for the IC (total growth inhibition) in the assay with THP-1 cells and in the assay on K-562 cells were 0.274 µM and more than 10 µM, respectively.
The matching figures for `COc1ncc(-n2nc(C)c3c2C(=O)N(c2cc(C)c(=O)n(C)c2)[C@H]3c2ccc(Cl)cc2)c(OC)n1` [Example 99, (S)-4-(4-chlorophenyl)-1-(2,4-dimethoxypyrimidin-5-yl)-5-(1,5-dimethyl-6-oxo-1,6-dihydropyridin-3-yl)-3-methyl-4,5-dihydropyrrolo[3,4-c]pyrazol-6(1H)-one]: 7800 nM, more than 37000 nM, more than 10 µM and more than 10 µM.
The matching figures for `COc1ncc(-n2nc(C)c3c2C(=O)N(c2cc(C)c(=O)n(C)c2)[C@@H]3c2ccc(Cl)cc2)c(OC)n1` [Example 100, (R)-4-(4-chlorophenyl)-1-(2,4-dimethoxypyrimidin-5-yl)-5-(1,5-dimethyl-6-oxo-1,6-dihydropyridin-3-yl)-3-methyl-4,5-dihydropyrrolo[3,4-c]pyrazol-6(1H)-one]: 25 nM, 4200 nM, 0.153 µM and more than 10 µM.
For `COc1ncccc1-n1nc(C)c2c1C(=O)N(c1cc(C)c3nnc(C)n3c1)C2c1ccc(Cl)cc1` (stereo not drawn) [Example 101, 4-(4-chlorophenyl)-5-(3,8-dimethyl-[1,2,4]triazolo[4,3-a]pyridin-6-yl)-1-(2-methoxypyridin-3-yl)-3-methyl-4,5-dihydropyrrolo[3,4-c]pyrazol-6(1H)-one] the same measures were 34 nM, 19000 nM, 0.102 µM and more than 10 µM.
As to `Cc1nn(C2CC2)c2c1C(c1ccc(Cl)cc1)N(c1ccc3nnn(C)c3n1)C2=O` (stereo not drawn) [Example 102, 4-(4-chlorophenyl)-1-cyclopropyl-3-methyl-5-(3-methyl-3H-[1,2,3]triazolo[4,5-b]-pyridin-5-yl)-4,5-dihydropyrrolo[3,4-c]pyrazol-6(1H)-one], the results for the IC50 (on His-Brd4(44-477); in assay [1]) were 59 nM and more than 37000 nM, respectively. Also, the IC (total growth inhibition) with THP-1 cells is 0.304 µM; with K-562 cells it was more than 10 µM.
Consider `Cc1nn(C(C)C)c2c1[C@H](c1ccc(Cl)cc1)N(c1cc(C)c(=O)n(C)c1)C2=O` [Example 103, (S)-4-(4-chlorophenyl)-5-(1,5-dimethyl-6-oxo-1,6-dihydropyridin-3-yl)-1-isopropyl-3-methyl-4,5-dihydropyrrolo[3,4-c]pyrazol-6(1H)-one], for which the figures for the 50% inhibitory concentration (IC50) (on His-Brd4(44-477); in assay [1]) were 11000 nM and more than 37000 nM, respectively. Also, the IC (total growth inhibition) with THP-1 cells and in the assay on K-562 cells was more than 10 µM in each case.
In the case of `Cc1nn(C(C)C)c2c1[C@@H](c1ccc(Cl)cc1)N(c1cc(C)c(=O)n(C)c1)C2=O` [Example 104, (R)-4-(4-chlorophenyl)-5-(1,5-dimethyl-6-oxo-1,6-dihydropyridin-3-yl)-1-isopropyl-3-methyl-4,5-dihydropyrrolo[3,4-c]pyrazol-6(1H)-one], the IC50 came to 13 nM at His-Brd4(44-477) and 1200 nM in assay [1]. For the same compound, the IC (total growth inhibition) with THP-1 cells is 0.045 µM; in the assay on K-562 cells, more than 10 µM.
The matching figures for `CCc1nn(C)c2c1C(c1ccc(Cl)cc1)N(c1cc(OC)c3nnc(C)n3c1)C2=O` (stereo not drawn) [Example 105, 4-(4-chlorophenol)-3-ethyl-5-(8-methoxy-3-methyl-[1,2,4]triazolo[4,3-a]pyridin-6-yl)-1-methyl-4,5-dihydropyrrolo[3,4-c]pyrazol-6(1H)-one]: 68 nM, more than 37000 nM, 0.335 µM and more than 10 µM.
The matching figures for `CCc1nn(C2CC2)c2c1[C@H](c1ccc(Cl)cc1)N(c1cc(C)c3nnc(C)n3c1)C2=O` [Example 106, (S)-4-(4-chlorophenyl)-1-cyclopropyl-5-(3,8-dimethyl-[1,2,4]triazolo[4,3-a]pyridin-6-yl)-3-ethyl-4,5-dihydropyrrolo[3,4-c]pyrazol-6(1H)-one]: 2200 nM, more than 37000 nM, 4.68 µM and more than 10 µM.
The matching figures for `CCc1nn(C2CC2)c2c1[C@@H](c1ccc(Cl)cc1)N(c1cc(C)c3nnc(C)n3c1)C2=O` [Example 107, (R)-4-(4-chlorophenyl)-1-cyclopropyl-5-(3,8-dimethyl-[1,2,4]triazolo[4,3-a]pyridin-6-yl)-3-ethyl-4,5-dihydropyrrolo[3,4-c]pyrazol-6(1H)-one]: less than 11 nM, 6900 nM, 0.0199 µM and more than 10 µM.
